# According to the NIST ThermoML archive (doi:10.1016/j.jct.2017.03.006):
# ± gives the expanded uncertainty stated by the source.
# Test: xn = mol fraction of the nth substance listed
# Conditions: 273.15 K, Liquid, Vibrating tube method
structure (smiles),measurement,setting,value
"Cc1ccc(C)c(C)c1 [1,2,4-trimethylbenzene] + CCCCO",mass density,"100 kPa, x2 = 0",891.7 ± 0.7 kg/m3
same,mass density,"100 kPa, x2 = 0.1005",886.7 ± 0.7 kg/m3
same,mass density,"100 kPa, x2 = 0.2261",880.3 ± 0.7 kg/m3
same,mass density,"100 kPa, x2 = 0.2999",876.4 ± 0.7 kg/m3
same,mass density,"100 kPa, x2 = 0.3966",870.8 ± 0.7 kg/m3
same,mass density,"100 kPa, x2 = 0.5289",862.9 ± 0.7 kg/m3
same,mass density,"100 kPa, x2 = 0.6367",855.6 ± 0.7 kg/m3
same,mass density,"100 kPa, x2 = 0.7249",849.2 ± 0.7 kg/m3
same,mass density,"100 kPa, x2 = 0.9131",833.3 ± 0.7 kg/m3
same,mass density,"1000 kPa, x2 = 0",892.3 ± 0.7 kg/m3
same,mass density,"1000 kPa, x2 = 0.1005",887.1 ± 0.7 kg/m3
same,mass density,"1000 kPa, x2 = 0.2261",880.5 ± 0.7 kg/m3
same,mass density,"1000 kPa, x2 = 0.2999",876.7 ± 0.7 kg/m3
same,mass density,"1000 kPa, x2 = 0.3966",871.1 ± 0.7 kg/m3
same,mass density,"1000 kPa, x2 = 0.5289",863.2 ± 0.7 kg/m3
same,mass density,"1000 kPa, x2 = 0.6367",855.9 ± 0.7 kg/m3
same,mass density,"1000 kPa, x2 = 0.7249",849.5 ± 0.7 kg/m3
same,mass density,"1000 kPa, x2 = 0.7977",843.7 ± 0.7 kg/m3
same,mass density,"1000 kPa, x2 = 0.9131",833.7 ± 0.7 kg/m3
same,mass density,"5000 kPa, x2 = 0",894.6 ± 0.7 kg/m3
same,mass density,"5000 kPa, x2 = 0.1005",889.5 ± 0.7 kg/m3
same,mass density,"5000 kPa, x2 = 0.2261",883 ± 0.7 kg/m3
same,mass density,"5000 kPa, x2 = 0.2999",879.2 ± 0.7 kg/m3
same,mass density,"5000 kPa, x2 = 0.3966",873.6 ± 0.7 kg/m3
same,mass density,"5000 kPa, x2 = 0.5289",865.7 ± 0.7 kg/m3
same,mass density,"5000 kPa, x2 = 0.6367",858.5 ± 0.7 kg/m3
same,mass density,"5000 kPa, x2 = 0.7249",852.1 ± 0.7 kg/m3
same,mass density,"5000 kPa, x2 = 0.7977",846.3 ± 0.7 kg/m3
same,mass density,"5000 kPa, x2 = 0.9131",836.3 ± 0.7 kg/m3
same,mass density,"10000 kPa, x2 = 0",897.4 ± 0.7 kg/m3
same,mass density,"10000 kPa, x2 = 0.1005",892.4 ± 0.7 kg/m3
same,mass density,"10000 kPa, x2 = 0.2261",885.9 ± 0.7 kg/m3
same,mass density,"10000 kPa, x2 = 0.2999",882.1 ± 0.7 kg/m3
same,mass density,"10000 kPa, x2 = 0.3966",876.6 ± 0.7 kg/m3
same,mass density,"10000 kPa, x2 = 0.5289",868.8 ± 0.7 kg/m3
same,mass density,"10000 kPa, x2 = 0.6367",861.5 ± 0.7 kg/m3
same,mass density,"10000 kPa, x2 = 0.7249",855.2 ± 0.7 kg/m3
same,mass density,"10000 kPa, x2 = 0.7977",849.4 ± 0.7 kg/m3
same,mass density,"10000 kPa, x2 = 0.9131",839.4 ± 0.7 kg/m3
same,mass density,"20000 kPa, x2 = 0",902.8 ± 0.7 kg/m3
same,mass density,"20000 kPa, x2 = 0.1005",897.9 ± 0.7 kg/m3
same,mass density,"20000 kPa, x2 = 0.2261",891.4 ± 0.7 kg/m3
same,mass density,"20000 kPa, x2 = 0.2999",887.7 ± 0.7 kg/m3
same,mass density,"20000 kPa, x2 = 0.3966",882.2 ± 0.7 kg/m3
same,mass density,"20000 kPa, x2 = 0.5289",874.4 ± 0.7 kg/m3
same,mass density,"20000 kPa, x2 = 0.6367",867.2 ± 0.7 kg/m3
same,mass density,"20000 kPa, x2 = 0.7249",860.8 ± 0.7 kg/m3
same,mass density,"20000 kPa, x2 = 0.7977",855.2 ± 0.7 kg/m3
same,mass density,"20000 kPa, x2 = 0.9131",845.3 ± 0.7 kg/m3
same,mass density,"30000 kPa, x2 = 0",908 ± 0.7 kg/m3
same,mass density,"30000 kPa, x2 = 0.1005",903.1 ± 0.7 kg/m3
same,mass density,"30000 kPa, x2 = 0.2261",896.7 ± 0.7 kg/m3
same,mass density,"30000 kPa, x2 = 0.2999",893 ± 0.7 kg/m3
same,mass density,"30000 kPa, x2 = 0.3966",887.5 ± 0.7 kg/m3
same,mass density,"30000 kPa, x2 = 0.5289",879.7 ± 0.7 kg/m3
same,mass density,"30000 kPa, x2 = 0.6367",872.6 ± 0.7 kg/m3
same,mass density,"30000 kPa, x2 = 0.7249",866.3 ± 0.7 kg/m3
same,mass density,"30000 kPa, x2 = 0.7977",860.6 ± 0.7 kg/m3
same,mass density,"30000 kPa, x2 = 0.9131",850.8 ± 0.7 kg/m3
same,mass density,"40000 kPa, x2 = 0",912.9 ± 0.7 kg/m3
same,mass density,"40000 kPa, x2 = 0.1005",908 ± 0.7 kg/m3
same,mass density,"40000 kPa, x2 = 0.2261",901.7 ± 0.7 kg/m3
same,mass density,"40000 kPa, x2 = 0.2999",897.9 ± 0.7 kg/m3
same,mass density,"40000 kPa, x2 = 0.3966",892.5 ± 0.7 kg/m3
same,mass density,"40000 kPa, x2 = 0.5289",884.8 ± 0.7 kg/m3
same,mass density,"40000 kPa, x2 = 0.6367",877.7 ± 0.7 kg/m3
same,mass density,"40000 kPa, x2 = 0.7249",871.4 ± 0.7 kg/m3
same,mass density,"40000 kPa, x2 = 0.7977",865.8 ± 0.8 kg/m3
same,mass density,"40000 kPa, x2 = 0.9131",856 ± 0.8 kg/m3
same,mass density,"50000 kPa, x2 = 0",917.5 ± 0.7 kg/m3
same,mass density,"50000 kPa, x2 = 0.1005",912.6 ± 0.7 kg/m3
same,mass density,"50000 kPa, x2 = 0.2261",906.3 ± 0.7 kg/m3
same,mass density,"50000 kPa, x2 = 0.2999",902.7 ± 0.7 kg/m3
same,mass density,"50000 kPa, x2 = 0.3966",897.3 ± 0.7 kg/m3
same,mass density,"50000 kPa, x2 = 0.5289",889.6 ± 0.8 kg/m3
same,mass density,"50000 kPa, x2 = 0.6367",882.5 ± 0.8 kg/m3
same,mass density,"50000 kPa, x2 = 0.7249",876.2 ± 0.8 kg/m3
same,mass density,"50000 kPa, x2 = 0.7977",870.6 ± 0.8 kg/m3
same,mass density,"50000 kPa, x2 = 0.9131",860.9 ± 0.8 kg/m3
same,mass density,"60000 kPa, x2 = 0",921.9 ± 0.7 kg/m3
